Assay results taken from patent US10463630B2, “Interaction of methylated LSD1 and CHD1, a compound inhibiting this interaction for use in therapy, and a screening method for such a compound” (Albert-Ludwigs-Universität Freiburg, priority 2015, dated 2019).
Where a chain is given by its changes, count along the chain named.

Columns and labels:
CHD1aa270-443 = target: T1, CHD1aa270-443 (Homo sapiens, UniProt O14646); assay: Isothermal titration calorimetry (ITC) of peptides titrated to CHD1; assay type: binding; conditions: FIG. 2a
T1 construct: titration of LSD1aa104-127 K114me0, 1, 2, and 3 peptides to CHD1aa270-443; made in house; E. coli likely, inferred from the pET15b vector
T1 sequence (O14646 270-443): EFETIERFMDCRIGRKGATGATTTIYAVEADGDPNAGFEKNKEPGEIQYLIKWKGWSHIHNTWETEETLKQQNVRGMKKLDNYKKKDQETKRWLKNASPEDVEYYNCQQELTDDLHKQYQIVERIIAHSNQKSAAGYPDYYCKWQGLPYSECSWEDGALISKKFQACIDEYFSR
Method: ITC experiments were performed at 25° C. with a MicroCal VP-ITC microcalorimeter (GE Healthcare). Experiments were performed by injecting 12 μl of peptide (1.5 mM) into the sample cell containing 100 μM CHD1 in 20 mM BTP pH 8, 75 mM NaCl. A total of 24 injections were performed with a spacing of 240 s and a reference power of […]. Automated baseline assignment and peak integration were performed with NITPIC version 1.0.1.^26. Isotherms were plotted, with a single-site binding model, using SEDPHAT version 10.58d^26. Isotherms were subsequently validated by one dimensional error surface projections in SEDFIT^27.

CHD1 D425A = target: T2, CHD1 D425A (Homo sapiens, UniProt O14646, D425A); assay: ITC with CHD1 D425A mutant; assay type: binding; conditions: data not shown
T2 construct: titration of LSD1aa104-127 K114me0, 1, 2, and 3 peptides to CHD1aa270-443; made in house; E. coli likely, inferred from the pET15b vector of the wild-type fragment
T2 sequence (O14646 270-443 D425A): T1 sequence (O14646 270-443) with D156A
Excerpt: Amino acid residues 110-116 of the LSD1 peptide were modelled according to the electron density (FIG. 2c). […] This interaction involves residues Y295, W322, W325 from chromodomain 1 and D408 and D425 from chromodomain 2 (FIG. 2b and FIG. 5a). The methylammonium group of LSD1 K114 and side chains of W322 and W325 of CHD1 form cation-π interactions. […] It was therefore hypothesized that the R113-D425 interaction may be a discriminating feature of CHD1 binding either LSD1 K114me2 or H3K4me3 peptide and that the corresponding surface could be exploited for the design of inhibitors specifically interfering with LSD1 K114me2 but not H3K4me3 interaction (see FIG. 5c). […] Next, it was tested whether in vivo the interaction of CHD1 with LSD1 depends on LSD1 methylation. In the presence of G9A, endogenous CHD1 only coimmunoprecipitated with methylated Flag-LSD1, but not with Flag-LSD1 K114A (FIG. 2d). To investigate whether CHD1 and LSD1 K114me2 are present in the same protein complex, LNCaP cell extracts were subjected to sucrose gradient centrifugation. […] Furthermore, endogenously expressed CHD1 and LSD1 K114me2 coimmunoprecipitated with G9A from LNCaP cell extracts (FIG. 2f). Together, these observations identify CHD1 as a LSD1 K114me2 reader.
ITC experiments were performed at 25° C. with a MicroCal VP-ITC microcalorimeter (GE Healthcare). […]

LNCaP cells [1] = assay: Chromatin immunoprecipitation (ChIP) at AREs of TMPRSS2 and KLK3 enhancers; assay type: cell-based, human; conditions: for chromatin occupancy of G9A: presence or absence of DHT and Bix-01294
Method: ChIP experiments were performed essentially as previously described^10. LNCaP and LAPC4 cells were cultured for 210 min in the absence or presence of 1×10^-7 M DHT as indicated. Three days before harvesting, cells were transfected with siRNA against LSD110, G9A20, or CHD121 that were previously described and validated using Dharmafect2 (Thermo Scientific) following the manufacturer's instructions. Immunoprecipitation was performed with specific antibodies (α-AR (N-20), #sc-816, lot A0207, Santa Cruz), α-LSD1 (#20752, Schuele Laboratory), α-LSD1 K114me2 (#4871, Schuele Laboratory), α-CHD1 (#A301-218A, lot A301-218A-1, Bethyl Laboratories), α-G9A (#ab40542, lot GR170862-1, Abcam) on protein A-Sepharose 4B (GE-Healthcare). For PCR, 2 μl out of 70 μl DNA extract were used. Primer sequences were as follows: TMPRSS2 enhancer (−13782/−13866) 5′-[…]-3′ (SEQ ID NO:1) and 5′-[…]-3′ (SEQ ID NO:2); KLK3 enhancer (−3980/−4048) 5′-[…]-3′ (SEQ ID NO:3) and 5′-[…]-3′ (SEQ ID NO:4); control (chr6:151953789-151953927) 5′-[…]-3′ (SEQ ID NO:5) and 5′-[…]-3′ (SEQ ID NO:6).
LNCaP cells were cultured and transfected as described^10.

LNCaP cells [2] = assay: Expression of androgen-regulated genes (quantitative RT-PCR); assay type: cell-based, human; conditions: 1×10^−5 M Bix-01294, FIG. 3j
LAPC4 cells [3] = assay: as above; assay type: cell-based; conditions: 1×10^−5 M Bix-01294, FIG. 3k
LAPC4 cells [4] = assay: Chromosome conformation capture (3C), TMPRSS2 enhancer-breakpoint loop; assay type: cell-based; conditions: DHT, Bix-01294, FIG. 4b
Method: LNCaP cells were grown for 72 hours in medium supplemented with 10% double-stripped FCS, treated for 210 min with or without DHT 10^−7 M, washed in PBS, and trypsinized 2 min at 37° C. After washing, cells were resuspended in PBS, filtered through a 40 μm cell strainer and collected in an ice cold 2% formaldehyde solution. After 15 min incubation at 4° C., fixation was stopped by adding glycine and cells were pelleted. After washing, cells were resuspended in nuclear isolation buffer (10 mM HEPES-KOH pH 7.9, 1.5 mM MgCl2, 10 mM KCl, 0.5 mM DTT, Complete protease inhibitor cocktail, Roche), allowed to swell on ice for 10 min, vortexed for 10 seconds at low speed, and pelleted. Isolated nuclei were resuspended in NEB restriction buffer, SDS was added to a final concentration of 0.5%, and nuclei were incubated for 1 h at 37° C. while shaking. Upon addition of Triton X-100, samples were incubated for 1 h at 37° C. to sequester SDS. 50 μl of the sample were taken and used as an undigested control. 600 U restriction enzyme were added and samples were incubated overnight at 37° C. while shaking. 40 μl 20% SDS solution was added and incubated for 20 min at 65° C. to inactivate the restriction enzyme. […] Purified DNA samples were analyzed on a Roche LightCycler®480 by TaqMan-based qPCR. […] To verify Enhancer-Breakpoint PCR product, samples were analyzed on a 2% agarose gel and sequenced. […]

LNCaP cells [5] = test system: LNCaP cells
Method: LNCaP cells were grown for 72 hours in medium supplemented with 10% double-stripped FCS, treated for 210 min with or without DHT 10^−7 M, washed in PBS, and trypsinized 2 min at 37° C. After washing, cells were resuspended in PBS, filtered through a 40 μm cell strainer and collected in an ice cold 2% formaldehyde solution. After 15 min incubation at 4° C., fixation was stopped by adding glycine and cells were pelleted. After washing, cells were resuspended in nuclear isolation buffer (10 mM HEPES-KOH pH 7.9, 1.5 mM MgCl2, 10 mM KCl, 0.5 mM DTT, Complete protease inhibitor cocktail, Roche), allowed to swell on ice for 10 min, vortexed for 10 seconds at low speed, and pelleted. Isolated nuclei were resuspended in NEB restriction buffer, SDS was added to a final concentration of 0.5%, and nuclei were incubated for 1 h at 37° C. while shaking. Upon addition of Triton X-100, samples were incubated for 1 h at 37° C. to sequester SDS. 50 μl of the sample were taken and used as an undigested control. 600 U restriction enzyme were added and samples were incubated overnight at 37° C. while shaking. 40 μl 20% SDS solution was added and incubated for 20 min at 65° C. to inactivate the restriction enzyme. […] Purified DNA samples were analyzed on a Roche LightCycler®480 by TaqMan-based qPCR. […] To verify Enhancer-Breakpoint PCR product, samples were analyzed on a 2% agarose gel and sequenced.

LNCaP cells [6] = conditions: DHT 10^−6 M, 3 days, FIG. 4f
Method: Expression analysis of TMPRSS2-ERG (FIG. 4f) was done essentially as previously described. […] HPRT was used for normalization.
(§1) LNCaP cells were cultured and transfected as described^10. […] For FISH and analysis of TMPRSS2-ERG expression (FIG. 4f,g) cells were transfected with siRNAs height and five days before harvesting; DHT 10^−6 M was added to the cells as indicated 3 days before harvesting. […] Cells were cultivated for 3 days (FIG. 4f, g) with DHT 10^−6 M as indicated.

LNCaP cells [7] = conditions: DHT 10^−6 M, 3 days, FIG. 4g
Method: as §1
To determine TMPRSS2-ERG fusion status in LNCaP cells, a FISH break-apart assay was performed as described previously^41. The FISH probe consists of two BAC clones spanning the centromeric and telomeric region of the ERG locus on chromosome 21q22.2: RP11-24A11 labelled with biotin-14-dCTP (red) and RP11-137J13 labelled with digoxigenin-dUTP (green). After harvesting, LNCaP cells were incubated with 0.075 M KCl at 37° C. for 15 min and fixed on slides (acetic acid/methanol 1:3). Slides were pre-treated with 2×SSC at 37° C. for 60 min, digested with 1:25 Digest-A11 III at 37° C. for 6 min and dehydrated in an ascending ethanol series. The probes were denatured at 73° C. for 5 min and subsequently co-denaturized with the cells (85° C., 4 min). Hybridization of the two probes was performed at 37° C. overnight. […] Finally slides were counterstained with DAPI and mounted and independently evaluated by two persons.

[8] = target: T3, CHD1 double chromodomain (GST-CHD1 Chromo 1/2) (Homo sapiens, UniProt O14646); assay: Protein profiling on protein-domain microarrays with LSD1 peptides; assay type: binding; conditions: GST-fusion proteins
T3 sequence (O14646 268-443 limits assumed): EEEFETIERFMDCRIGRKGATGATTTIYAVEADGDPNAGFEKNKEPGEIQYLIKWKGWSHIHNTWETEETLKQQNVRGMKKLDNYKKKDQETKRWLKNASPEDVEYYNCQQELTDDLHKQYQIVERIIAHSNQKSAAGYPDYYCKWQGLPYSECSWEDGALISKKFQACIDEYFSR
Method: To identify potential LSD1 K114me2 methyl-lysine reader proteins, protein profiling was performed on protein-domain microarrays using un- and dimethylated LSD1 peptides LSD1aa104-127 and LSD1aa104-127 K114me2, respectively (see also ref.^14). In this profiling assay, several GST-fusion proteins including CHD1 fused to GST were used. Other GST-fusions that were used were e.g. PhD-domain proteins (BPTF, ING2 or PHF2), BROMO-domain proteins (GCN5, TAF1-D1 or TAF1-D2), or BRCT-proteins (BRCA1, 53BP1 or Crb2).

“Unmethylated H3 peptide: unmethylated histone H3 peptide” was tested. Which “binding to GST-CHD1 Chromo 1/2” value (CHD1aa270-443) did it give?
Its value is “did not bind”.

Which “effect of D425A mutation in CHD1 on peptide binding” value (CHD1 D425A) does the source give for “H3K4me3 peptide: histone 3 peptide modified at lysine residue 4 by three methyl-groups” here?
Its value is “only mildly affected”.

Which “chromatin occupancy of G9A” value (LNCaP cells [1]; ChIP) does the source give for `COc1cc2nc(N3CCCN(C)CC3)nc(NC3CCN(Cc4ccccc4)CC3)c2cc1OC` [Bix-01294] here?
Its value is “not altered”.

And the “androgen-induced methylation of LSD1 and androgen-induced recruitment of CHD1 and AR” value (LNCaP cells [1]; DHT, 1×10^−5 M Bix-01294, ChIP, FIG. 3g)?
Its value is “blocked”.

And the “DHT-induced expression of TMPRSS2, KLK3, PRDM4, ELK4, GREB1, IGF1R, FKBP5, or EGFR” value (LNCaP cells [2])?
The value was “greatly reduced”.

What about the “DHT-induced expression of TMPRSS2, KLK3, PRDM4, ELK4, GREB1, IGF1R, FKBP5, or EGFR” value (LAPC4 cells [3]) of the same compound?
Its value is “greatly reduced”.

And the “androgen-dependent TMPRSS2 enhancer-breakpoint loop formation” value (LAPC4 cells [4])?
Its value is “blocked this loop formation”.

And the “androgen-dependent TMPRSS2 enhancer-breakpoint loop formation” value (LNCaP cells [5]; DHT, Bix-01294, FIG. 4a)?
The value was “blocked this loop formation”.

Which “chromatin occupancy of G9A” value (LNCaP cells [1]; ChIP) does the source give for `C[C@]12CCC(=O)C[C@@H]1CC[C@@H]1[C@@H]2CC[C@]2(C)[C@@H](O)CC[C@@H]12` [DHT, dihydrotestosterone] here?
Its value is “not altered”.

And the “LSD1 K114me2 levels and CHD1 and AR occupancy of the TMPRSS2 and KLK3 genes” value (LNCaP cells [1]; DHT 10^−7 M, 210 min, ChIP)?
Its value is “elevated LSD1 K114me2 levels accompanied by increased CHD1 and AR occupancy”.

What about the TMPRSS2 enhancer-breakpoint interactions (LNCaP cells [5]; DHT 10^−7 M, 210 min, 3C) of the same compound?
Its TMPRSS2 enhancer-breakpoint interactions is “enhancer-breakpoint interactions upon treatment with DHT was observed”.

And the TMPRSS2-ERG transcript (LNCaP cells [6])?
Its TMPRSS2-ERG transcript is “led to the production of TMPRSS2-ERG transcript”.

And the “ERG rearrangements by FISH” value (LNCaP cells [7])?
Its value is “induced ERG rearrangements”.

Which results are given for “Unmethylated LSD1: unmethylated LSD1 peptide LSD1aa104-127 (TPEGRRTSRRKRAKVEYREMDESL)”?
binding to GST-CHD1 Chromo 1/2 (CHD1aa270-443): did not bind; interaction with CHD1 double chromodomain on microarray [8]: not
